Data on three compounds can be found in patent US20200268829A1, “METHODS AND COMPOSITIONS FOR INHIBITING METASTASES OF AN ENDOTHELIN B RECEPTOR EXPRESSING CANCER” (ENB Therapeutics, Inc., priority 2020, published 2020).

Series [1] deals with A375 human melanoma cells. Kind of series: Subcutaneous A375 human melanoma xenograft. It is filed as in vivo, Nu/J nude mice. Conditions: A375 sc xenograft; Dabrafenib 100 mg/Kg PO daily, alone or with BQ788 600 ng IP TIW; p<0.05. The procedure:
FIG. 7. BQ788 synergizes with Dabrafenib in vivo. A375 human melanoma cells were implanted subcutaneously into the rear flank of Nu/J nude mice and allowed to grow to 150 mm3-200 mm3 prior to randomization and initiation of treatment. The mice received the following treatments: (1) vehicle (n=8), (2) Dabrafenib 100 mg/Kg PO daily (n=5), and (3) Dabrafenib+BQ788 600 ng IP TIW (n=5).
A375 human melanoma cells (3×10^6) were implanted subcutaneously into the rear flank of Nu/J nude mice and allowed to grow to 150 mm3-200 mm3 prior to randomization and initiation of treatment. The treatment groups were as follows: (1) vehicle (n=8), Dabrafenib 100 mg/Kg PO daily (n=5), (2) Dabrafenib+BQ788 600 ng IP 3×per week (n=5).
For orientation: A xenograft is tissue or cells of one species grown in another, often human tumour cells in immunodeficient mice.

The subject of series [2] is melanoma cell lines overexpressing ETBR (brain metastases). Kind of series: Mouse melanoma brain metastasis model, xenografts of melanoma cell lines overexpressing ETBR. It is filed as in vivo, mice. Conditions: 60 mg/kg/day. The method, then: FIGS. 5A, 5B, 5C, 5D, and 5E. ETBR antagonist inhibits melanoma brain metastasis in mice. […] In this study, lentiviral vectors were used to overexpress ETBR in melanoma cell lines, which were in turn used to implant xenografts in mice.
A192621 was administered at a dose of 60 mg/kg/day using a mouse melanoma model. […] In this study, lentiviral vectors were used to overexpress ETBR in melanoma cell lines, which were in turn used to implant xenografts in mice. In this study, lentiviral vectors were used to overexpress ETBR in melanoma cell lines, which were in turn used to implant xenografts in mice.

The target of the next series is T1, ETBR (Homo sapiens, UniProt P24530).
T1 sequence (P24530 27-442): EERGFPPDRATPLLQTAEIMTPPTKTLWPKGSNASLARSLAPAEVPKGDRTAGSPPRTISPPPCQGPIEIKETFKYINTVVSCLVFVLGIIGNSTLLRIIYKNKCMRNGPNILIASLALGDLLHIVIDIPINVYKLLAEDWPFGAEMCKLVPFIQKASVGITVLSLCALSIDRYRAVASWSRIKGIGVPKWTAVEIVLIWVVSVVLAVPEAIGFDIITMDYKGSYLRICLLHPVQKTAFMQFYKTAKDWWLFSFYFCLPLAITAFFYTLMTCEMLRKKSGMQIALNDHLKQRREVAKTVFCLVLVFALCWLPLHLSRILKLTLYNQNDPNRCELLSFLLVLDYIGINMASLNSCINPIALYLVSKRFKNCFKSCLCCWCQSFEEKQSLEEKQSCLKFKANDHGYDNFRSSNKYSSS
Kind of series: ETBR antagonist potency (IC50, Ki); no method given. The settings on record: for pIC50: for BQ788 printed with 'potent inhibitor of ETBR-related melanoma cell growth'. The class given is binding.

A short description of series [3]: Body weight under ascending intranasal BQ788 doses over 42 days. It is filed as in vivo, athymic nude mice. The settings on record: BQ788 alone, intranasally in 20% DMSO, ascending doses over 42 days. The procedure:
FIG. 9. ETAR antagonist and Niacinamide mitigate weight loss from BQ788. Six week old athymic nude mice were administered the ETBR antagonist BQ788 intranasally in 20% DMSO at the indicated ascending doses over a period of 42 days. One group was additionally administered the ETAR antagonist Macitentan orally at a dose of 5 mg/kg daily. The drinking water of these mice was supplemented with the B vitamin niacinamide at a concentration of 0.3 mg/mL. […] Co-administration of the ETAR antagonist Macitentan with niacinamide supplementation mitigated this weight loss. […] Co-administration of ETAR antagonists and niacinamide with ETBR antagonists mitigated the adverse effects of ETBR antagonists when administered for therapeutic purposes.
Six week old athymic nude mice (n=3 per group) were administered the ETBR antagonist BQ788 intranasally in 20% DMSO at the indicated ascending doses over a period of 42 days. One group was additionally administered the ETAR antagonist Macitentan orally at a dose of 5 mg/kg daily. The drinking water of these mice was supplemented with the B vitamin niacinamide at a concentration of 0.3 mg/mL. […] Co-administration of the ETAR antagonist Macitentan with niacinamide supplementation mitigated this weight loss. […]

In series [4] the test system is SKMEL28 human melanoma cells. Briefly: SKMEL28 human melanoma xenograft in mice: tumor weight, lung metastases, apoptosis. The class given is in vivo. The procedure: Mice were implanted with 1×10^6 SKMEL28 human melanoma cells. Tumors were established for 10 days until palpable then 120 ng (˜60 ug/kg) BQ788 dissolved in DMSO was injected IP 3×per week×6 weeks. Mice were then sacrificed and lungs harvested and tumors weighed. A 75% reduction in tumor weight was observed.

pIC50, pKi: −log10 of the molar value. “Also recorded” adds a separate entry of the source.

Turning to `CC(C)(C)c1nc(-c2cccc(NS(=O)(=O)c3c(F)cccc3F)c2F)c(-c2ccnc(N)n2)s1` [Dabrafenib], the tumor growth result in series [1] is recorded as “retarded the growth of tumors; also recorded: retarded tumor growth”.
`CCCOc1ccc([C@H]2[C@H](C(=O)O)[C@@H](c3ccc4c(c3)OCO4)CN2CC(=O)Nc2c(CC)cccc2CC)cc1` [A192621, (2R,3R,4S)-4-(1,3-benzodioxol-5-yl)-1-[2-(2,6-diethylanilino)-2-oxoethyl]-2-(4-propoxyphenyl)pyrrolidine-3-carboxylic acid]: in series [2], the CNS melanoma tumors entry is “shrinks CNS melanoma tumors”, the brain melanoma metastases entry is “shrinks brain melanoma metastases” and the survival entry is recorded as “increases survival”. On ETBR, the pKi is 8.06 and the pIC50 was 8.35.
On to `CCCC[C@@H](NC(=O)[C@@H](Cc1cn(C(=O)OC)c2ccccc12)NC(=O)[C@H](CC(C)(C)C)NC(=O)N1[C@H](C)CCC[C@@H]1C)C(=O)O` [BQ788], for which the “average weight loss relative to baseline body weight by the end of the study” value in series [3] is on record as 5%. In addition, in series [4] (SKMEL28 xenograft mice, 120 ng (~60 ug/kg) BQ788 in DMSO IP 3x per week x 6 weeks), the “reduction in tumor weight” value came to 75%. For the same compound, the “clearance of lung metastases” value in series [4] (SKMEL28 xenograft mice, 120 ng (~60 ug/kg) BQ788 in DMSO IP 3x per week x 6 weeks, vs control mice) is given as greater than 95%. The “apoptosis in melanoma tumor cells” value in series [4] (melanoma tumor cells) is “induces apoptosis”. Besides, on ETBR, the pKi is 7.75 and the pIC50 was 8.92.

As usually defined, the pKi is −log10 of the Ki, conventionally taken in molar units. For orientation: pIC50 means the IC50 on a negative log10 scale, so that one unit is a factor of ten. Low values mean a large IC50, high ones a small IC50.
